Results on two molecules are retold here after patent publication US11174267B2, “Spiroindolinones and therapeutic uses thereof” (The Regents of the University of California, priority 2015, dated 2021).

Read-outs that look alike come from different tables or passages of the source. Bounds are passed on as bounds.

For series [1], the system named is susceptible strain (HLY4123) of C. albicans. The series can be described thus: Dose-response with fluconazole (0.25 μg/mL) against susceptible strain. Type of series: cell-based, Candida albicans. As to conditions: Candida albicans, with fluconazole 0.25 μg/mL; strain HLY4123. The protocol: (§1) C. albicans was grown in SC medium overnight and then diluted to an effective OD600 of 0.0625. Serial ten-fold dilutions of the test compounds (0.15-1500 μM) were prepared in DMSO in 1.5 mL Eppendorf tubes. […] The plates were incubated in a rotary shaker/incubator at 30° C. for 16 h. The contents of each well was resuspended with a micropipettor and a 20 μL aliquot was added to a polystyrene cuvette and diluted with 680 μL of deionized water. The suspension was triturated again immediately before measuring the absorbance at 600 nm (OD600) for cell densities. EC50 values were determined by fitting to the Hill equation using the Excel-based tool ED50PLUS v1.0 (Mario H. Vargas) or using Mathematica. Similar procedures were used for Candida glabrata and Cryptococcus neoformans.

The test system of another series is Cryptococcus neoformans. The series can be described thus: EC50 in combination with fluconazole, Cryptococcus neoformans. It counts as cell-based. Conditions: [fluconazole] = 4 μg/mL.
Text: (§2) Strains and growth condition. The wild-type Candida albicans strains used were SC5314 and CaSS1. Cdr1 heterozygous were from Merck Sharp & Dohme Corp. Double Barcoded (DBC) library of heterozygous Candida albicans mutants (version 2013A). Cdr1 deficient mutant was obtained by counterselection of the GRACE library strain on 5-Fluoroorotic Acid (5-FOA) containing plate. Clinical isolated resistant C. albicans were from Dr. David Rogers. Cryptococcus neoformans var. grubii H99 (ATCC 208821) and Candida glabrata BG2, a fluconazole-resistant clinical isolate, were used. Yeast strains were cultured at 30° C. in synthetic complete (SC) medium containing 2% glucose.
as §1
(§3) Because fungal drug-efflux ABC transporters are conserved, Cdr1 inhibitors that target the conserved regions of the pumps are expected to inhibit the drug efflux pumps in all fungi including C. albicans. […] Therefore, those spiroindolinones are candidates for combination antifungal therapy with azoles against invasive infections of not only C. albicans, but also other pathogenic fungi.

Another series has as its system Candida glabrata. In words: EC50 in combination with fluconazole, Candida glabrata. As to conditions: [fluconazole] = 128 μg/mL. Type of series: cell-based.
Text: as §2, §1, §3

The subject of another series is C. albicans. The series can be described thus: Drug susceptibility assay in combination with azole antifungals and other Cdr1/Mdr1 substrates. As to conditions: for EC50 / MIC50: Candida albicans. Type of series: cell-based, Candida albicans. Here is the method:
Drug susceptibility assay. All the assays were carried out with SC medium in 24-well plates. […] Plates were incubated at 30° C. for 15 h. Cell growth was measured by reading absorbance at 600 nm. […] EC50 values were calculated by nonlinear regression curve fit of log (concentration) versus the % cell growth.
Compound 1 was also studied to determine if it can synergize with all azole antifungals and non-azole drugs that are known Cdr1 substrates. […] The effective concentrations of the spiroindolinone used are at nM levels, much lower than that of substrates (azoles for example), therefore ruling out competitive inhibition as the mechanism. […] With further study it is possible to determine drug-target interaction sites on Cdr1.

Series [2] can be described thus: Solubility limit in the checkerboard assay. As to conditions: checkerboard assay medium. Type of series: physicochemical. From the text: In all of the strains tested, the FIC index was below 0.5, fitting the classical definition of synergy.
For series [3], the system named is resistant clinical isolates of C. albicans. In words: EC50 against selected resistant clinical isolates with fluconazole. As to conditions: Candida albicans, fluconazole 64 μg/mL. It counts as cell-based. Here is the method:
as §1
(Flowers, S. A., et al. Eukaryotic Cell 2012, 11, 1289-1299.) The strains grow at dramatically different rates.

For series [4], the system named is Resistant Candida albicans (clinical isolate-45). In words: EC50 in combination with fluconazole, resistant C. albicans. Type of series: cell-based.
In series [5] the test system is cdr1/CDR1 heterozygous mutant and cdr1/cdr1 deletion strain. The series can be described thus: Azole-synergizer effect in cdr1 mutants. Type of series: cell-based, Candida albicans. As to conditions: with FLC.
Text: as §2
Manually Screening. Of the DBC library was carried out in 96-well flat bottom plates. Briefly, BDC library grown in YPD agar were transferred to SC medium in 96-well flat bottom plates with a 96-well pin tool and grown overnight at 30° C. Cell cultures were diluted 1:800 in fresh SC medium with or without compounds and incubated at 30° C. for 24 h. Cell growth was measured with Tecan GENios Plus microplate reader (Tecan, Switzerland).
Small number of outliers in the HIP profiling indicates few off-targets for the compound. To avoid missing genes due to the bias of PCR and sequencing, a manual screening of the DBC library with Compound 1 and FLC in 96 well plates was also carried out.

Another series deals with NIH 3T3 cells. In words: Cytotoxicity, LDH assay. Conditions: concentrations up to 1.5 mM. It counts as cell-based. Here is the method:
The cytotoxicity of spiroindoline Compounds 1, 8 and 25 were tested against NIH 3T3 cells at concentrations up to 1.5 mM (FIG. 13) using an LDH assay.

Where [6] appears, read: MDR1, with clotrimazole 0.221 μg/mL.
The mark [7] stands for this setting: MDR1, with fluconazole 0.500 μg/mL.
The mark [8] stands for this setting: MDR1, with itraconazole 0.004 μg/mL.
Setting [9] is: MDR1, with ketoconazole 0.289 μg/mL.
Where [10] appears, read: MDR1, with miconazole 0.031 μg/mL.
The mark [11] stands for this setting: MDR1, with vorizonazole 0.006 μg/mL.

On to `Cc1c(Cl)ccc2c1NC(=O)[C@@]21[C@H]2C(=O)N(c3ccccc3)C(=O)[C@H]2[C@H]2CN(C(=O)OCc3ccccc3)CCN21` (racemic) [Compound 25, (±)-benzyl (3R,3a′R,3b'S,9a'S)-6-chloro-7-methyl-1′,2,3′-trioxo-2′-phenyl-2′,3′,3a′,3b′,4′,6′,7′,9a′-octahydrospiro[indoline-3,9′-pyrrolo[3′,4′:3,4]pyrrolo[1,2-a]pyrazine]-5′(1′H)-carboxylate], for which the EC50 is 0.3 nM in series [1]; 192 nM in the series with Cryptococcus neoformans; > 30000 nM with Candida glabrata; 150 nM with C. albicans (setting [6]); 11 nM in the series with C. albicans (setting [7]); 4 nM with C. albicans (MDR1, with isavuconazole 0.0006 μg/mL). In addition, the EC50 stood at 190 nM in the series on C. albicans (setting [8]); 14 nM in the series on C. albicans (setting [9]); 240 nM in the series on C. albicans (setting [10]); 62 nM in the series with C. albicans (setting [11]); 5 nM in series [3] (read-out: Potency Cpd 25 EC50, clinical isolate 17); 53 nM in [3] (read-out: Potency Cpd 25 EC50, clinical isolate 23). Also, the EC50 was found to be 2 nM in series [3] (read-out: Potency Cpd 25 EC50, clinical isolate 26); 11 nM in series [3] (read-out: Potency Cpd 25 EC50, clinical isolate 33); 5 nM in [3] (read-out: Potency Cpd 25 EC50, clinical isolate 36); 16 nM in series [3] (read-out: Potency Cpd 25 EC50, clinical isolate 45); 400 nM in series [4] (read-out: EC50 Resistant Candida albicans; C. albicans clinical isolate-45; [fluconazole] = 64 μg/mL). Further, the MIC50 worked out at 4.1 µM in the series on C. albicans (with clotrimazole 0.221 μg/mL); 0.84 µM in the series on C. albicans (with fluconazole 0.500 μg/mL); 0.11 µM with C. albicans (with isavuconazole 0.0006 μg/mL); 2.5 µM in the series with C. albicans (with itraconazole 0.004 μg/mL); 2.3 µM in the series with C. albicans (with ketoconazole 0.289 μg/mL); 25 µM in the series with C. albicans (with miconazole 0.031 μg/mL). Moreover, the MIC50 in the series with C. albicans (with vorizonazole 0.006 μg/mL) stood at 1.9 µM. In addition, the solubility in series [2] is 30 to 300 µM.
On to `Cc1c(Cl)ccc2c1NC(=O)[C@]21N[C@H](Cc2ccccc2)[C@@H]2C(=O)N(c3ccc(F)cc3)C(=O)[C@@H]21` (racemic) [Compound 1, (±)-(3R,3′R,3a′R,6a'S)-3′-benzyl-6-chloro-5′-(4-fluorophenyl)-7-methyl-2′,3′,3a′,6a′-tetrahydro-4′H-spiro[indoline-3,1′-pyrrolo[3,4-c]pyrrole]-2,4′,6′(5′H)-trione], for which the EC50 in series [1] was 11 nM; in the series on Cryptococcus neoformans it was > 30000 nM; in the series on Candida glabrata it was 640 nM; in the series on C. albicans (setting [6]), 500 nM; with C. albicans (setting [7]) it was 100 nM; in the series on C. albicans (setting [8]) it was 700 nM. Moreover, the EC50 in the series with C. albicans (setting [9]) is 830 nM; in the series on C. albicans (setting [10]) it was 990 nM; with C. albicans (setting [11]) it was 310 nM; in series [4] (C. albicans clinical isolate-45; [fluconazole] = 64 μg/mL; read-out: EC50 Resistant Candida albicans), 440 nM. The MIC50 came out at 3.7 µM in the series on C. albicans (with clotrimazole 0.221 μg/mL); 1.3 µM in the series with C. albicans (with fluconazole 0.500 μg/mL); 1.7 µM in the series on C. albicans (with itraconazole 0.004 μg/mL); 7.4 µM in the series with C. albicans (with ketoconazole 0.289 μg/mL); 3.6 µM with C. albicans (with miconazole 0.031 μg/mL); 4.5 µM in the series with C. albicans (with vorizonazole 0.006 μg/mL). For the same molecule, in the series with C. albicans (all azole antifungals tested), the “susceptibility of C. albicans to azole antifungals” value is “increase the susceptibility”. Also, the “growth inhibitory activity of cycloheximide” value in the series with C. albicans (cycloheximide, substrate of the Cdr1 efflux pump) was “enhance the growth inhibitory activity”. Further, in the series on C. albicans (thiolutin, substrate of Mdr1), the “growth inhibitory activity of thiolutin” value is “did not enhance the growth inhibitory activity”. For the same molecule, in series [5], the “effect as azole-synergizer in cdr1 mutants” value is “significantly enhanced in the cdr1/CDR1 heterozygous mutant but blocked in the cdr1/cdr1 deletion strain”. In addition, in the series on NIH 3T3 cells, the cytotoxicity entry was “weak to negligible cytotoxicity”.
